Data published in the supplement of paper PMC10307832.

Columns and labels:
Experiment in all cases: relative viability (nuclei count vs DMSO), 5 days (fraction); higher = more cells survive
BI-2536 + Navitoclax = compound: CC[C@@H]1C(=O)N(C)c2cnc(Nc3ccc(C(=O)NC4CCN(C)CC4)cc3OC)nc2N1C1CCCC1 [BI-2536] + CC1(C)CCC(c2ccc(Cl)cc2)=C(CN2CCN(c3ccc(C(=O)NS(=O)(=O)c4ccc(N[C@H](CCN5CCOCC5)CSc5ccccc5)c(S(=O)(=O)C(F)(F)F)c4)cc3)CC2)C1 [Navitoclax] (partner 0.5 µM)
Summary of the method: (§1)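 Cells from lung cancer lines were seeded into 1536-well plates and, one day later, dosed by pin tool. Treatments were either a single drug or a fixed dose of an anchor drug with five library-drug doses (not always all listed) in √10 steps. After 5 days, nuclei were stained in a one-step fixation (final 0.05% Triton X-100, 1% formaldehyde, 1 ug/ml Hoechst) and counted on 4× images, and relative viability is the treated-to-vehicle nuclei ratio, as the median of duplicate plates.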

BI-2536 + Palbociclib = compound: CC[C@@H]1C(=O)N(C)c2cnc(Nc3ccc(C(=O)NC4CCN(C)CC4)cc3OC)nc2N1C1CCCC1 [BI-2536] + CC(=O)c1c(C)c2cnc(Nc3ccc(N4CCNCC4)cn3)nc2n(C2CCCC2)c1=O [Palbociclib] (partner 0.5 µM)
Summary of the method: as §1

[1] = compound: CC1CC(=O)N(C2=CN=C(N=C2N1C3CCCC3)NC4=C(C=C(C=C4)C(=O)NC5CCN(CC5)C)OC)C [NPK76-II-72-1] + Cc1cc(Nc2cc(N3CCN(C)CC3)nc(Sc3ccc(NC(=O)C4CC4)cc3)n2)n[nH]1 [Tozasertib] (partner 0.1 µM)
Summary of the method: as §1

BI-2536 + Linsitinib = compound: CC[C@@H]1C(=O)N(C)c2cnc(Nc3ccc(C(=O)NC4CCN(C)CC4)cc3OC)nc2N1C1CCCC1 [BI-2536] + C[C@]1(O)C[C@@H](c2nc(-c3ccc4ccc(-c5ccccc5)nc4c3)c3c(N)nccn32)C1 [Linsitinib] (partner 1 µM)
Summary of the method: as §1

Cell Line | relative viability (BI-2536 + Navitoclax; first compound 0.01 µM) | relative viability (BI-2536 + Navitoclax; first compound 0.03162 µM) | relative viability (BI-2536 + Navitoclax; first compound 0.1 µM) | relative viability (BI-2536 + Navitoclax; first compound 0.3162 µM) | relative viability (BI-2536 + Navitoclax; first compound 1 µM) | relative viability (BI-2536 + Palbociclib; first compound 0.01 µM) | relative viability (BI-2536 + Palbociclib; first compound 0.03162 µM) | relative viability (BI-2536 + Palbociclib; first compound 0.1 µM) | relative viability (BI-2536 + Palbociclib; first compound 0.3162 µM) | relative viability (BI-2536 + Palbociclib; first compound 1 µM) | relative viability ([1]; first compound 0.01 µM) | relative viability ([1]; first compound 0.03162 µM) | relative viability ([1]; first compound 0.1 µM) | relative viability ([1]; first compound 0.3162 µM) | relative viability ([1]; first compound 1 µM) | relative viability (BI-2536 + Linsitinib; first compound 0.01 µM) | relative viability (BI-2536 + Linsitinib; first compound 0.03162 µM) | relative viability (BI-2536 + Linsitinib; first compound 0.1 µM) | relative viability (BI-2536 + Linsitinib; first compound 0.3162 µM) | relative viability (BI-2536 + Linsitinib; first compound 1 µM)
NCI-H3122 | 1 | 0.991 | 0.525 | 0.233 | 0.241 | 0.191 | 0.175 | 0.171 | 0.132 | 0.159 | 0.389 | 0.425 | 0.366 | 0.365 | 0.465 | 1.03 | 1.06 | 1.01 | 0.184 | 0.224
COR-L23 | 0.883 | 0.792 | 0.358 | 0.0817 | 0.0706 | 0.298 | 0.242 | 0.139 | 0.117 | 0.127 | 0.195 | 0.23 | 0.218 | 0.182 | 0.192 | 0.961 | 1.06 | 0.605 | 0.104 | 0.0946
NCI-H2087 | 0.868 | 0.974 | 0.8 | 0.112 | 0.138 | 0.225 | 0.189 | 0.203 | 0.0781 | 0.118 | 0.284 | 0.203 | 0.272 | 0.254 | 0.249 | 0.83 | 1.06 | 0.927 | 0.197 | 0.163
LC-2-ad | 0.412 | 0.405 | 0.113 | 0.108 | 0.103 | 0.526 | 0.379 | 0.361 | 0.234 | 0.248 | 0.469 | 0.491 | 0.436 | 0.404 | 0.493 | 0.891 | 0.85 | 0.382 | 0.15 | 0.143
NCI-H1915 | 0.781 | 0.765 | 0.694 | 0.11 | 0.0514 | 0.424 | 0.546 | 0.426 | 0.0999 | 0.0968 | 0.479 | 0.455 | 0.47 | 0.418 | 0.482 | 1.12 | 1.05 | 1.03 | 0.625 | 0.143
NCI-H1793 | 0.438 | 0.34 | 0.275 | 0.218 | 0.159 | 0.328 | 0.34 | 0.276 | 0.168 | 0.154 | 0.34 | 0.377 | 0.36 | 0.263 | 0.369 | 0.939 | 0.85 | 1.03 | 0.211 | 0.205
NCI-H2023 | 0.984 | 0.92 | 0.723 | 0.0972 | 0.0716 | 0.382 | 0.348 | 0.168 | 0.102 | 0.0824 | 0.326 | 0.366 | 0.403 | 0.308 | 0.44 | 0.67 | 0.667 | 0.606 | 0.0984 | 0.109
COR-L 105 | 0.671 | 0.757 | 0.491 | 0.311 | 0.271 | 0.422 | 0.392 | 0.353 | 0.297 | 0.351 | 0.351 | 0.348 | 0.305 | 0.407 | 0.328 | 0.829 | 0.915 | 0.946 | 0.277 | 0.312
RERF-LC-KJ | 0.861 | 0.827 | 0.727 | 0.186 | 0.263 | 1.09 | 0.949 | 0.491 | 0.266 | 0.241 | 0.589 | 0.51 | 0.573 | 0.548 | 0.513 | 0.969 | 0.913 | 0.829 | 0.522 | 0.199
LXF-289 | 0.949 | 0.858 | 0.658 | 0.064 | 0.0512 | 0.612 | 0.583 | 0.587 | 0.116 | 0.116 | 0.172 | 0.214 | 0.181 | 0.165 | 0.2 | 0.988 | 0.892 | 0.845 | 0.069 | 0.0799
PC-14 | 1.05 | 1.06 | 0.902 | 0.0528 | 0.0559 | 0.458 | 0.489 | 0.0853 | 0.0424 | 0.0288 | 0.577 | 0.609 | 0.594 | 0.564 | 0.699 | 0.988 | 0.987 | 0.943 | 0.727 | 0.0823
NCI-H1666 | 1.13 | 0.905 | 0.702 | 0.262 | 0.214 | 0.701 | 0.575 | 0.642 | 0.505 | 0.467 | 0.668 | 0.674 | 0.525 | 0.546 | 0.666 | 0.86 | 0.736 | 0.762 | 0.224 | 0.276
NCI-H2085 | 1.04 | 1.13 | 0.704 | 0.208 | 0.272 | 0.489 | 0.446 | 0.409 | 0.287 | 0.301 | 0.802 | 0.79 | 0.812 | 0.825 | 0.855 | 0.958 | 0.919 | 0.831 | 0.267 | 0.329
NCI-H1734 | 0.746 | 0.629 | 0.636 | 0.102 | 0.113 | 0.358 | 0.349 | 0.256 | 0.203 | 0.192 | 0.29 | 0.271 | 0.28 | 0.261 | 0.287 | 0.947 | 0.896 | 0.859 | 0.238 | 0.228
